# Reference: US20230057621A1 (priority 2019, published 2023)
# How the values were obtained:
# Format in all cases: cell-based
# EB virus = test system: EB virus
# pseudorabies virus [1] = test system: pseudorabies virus
# pseudorabies virus [2] = test system: pseudorabies virus; remark: listed apart in the source
smiles,measurement,setting,value
CC(C)(C)C(=O)OCOP(=O)(COCCn1cnc2c(N)ncnc21)OCOC(=O)C(C)(C)C [adefovir dipivoxil],inhibitory activity against EB virus replication,EB virus,no inhibitory activity against EB virus
same,EC50 for the inhibition against pseudorabies virus proliferation,pseudorabies virus [1],reaches nanomolar level
same,inhibitory effect on pseudorabies virus replication and proliferation,pseudorabies virus [1],can significantly inhibit the replication and proliferation of pseudorabies virus
same,inhibition of the release of pseudorabies virus from cells,pseudorabies virus [2],can significantly inhibit the release of pseudorabies virus from cells
